In patent US10759843B2, “Method and pharmaceutical composition for use in the treatment of cancer” (priority 2012, dated 2020):
Non-standard residues stand in square brackets, D forms with d. Residues, ends and D or L forms follow the SMILES beside them.

Assays:
[1] = test system: normal B-lymphocytes; assay: PCD (Annexin-V-FITC) in normal B-lymphocytes; assay type: cell-based, human
Description: After authorized consent forms fresh blood samples will be collected from CLL patients diagnosed according to classical morphological and immunophenotypic criteria at Pitié-Salpêtrière Hospital (Service d'Hématologie Biologique). Normal B lymphocytes will be obtained from EFS (Etablisement Français du Sang). The Institutional Ethics Committee at Pitie-Salpetriere Hospital approved the present study. Mononuclear cells were purified from blood samples using a standard Ficoll-Hypaque gradient, and B cells were positively or negatively selected by magnetic beads coupled to anti-CD19 monoclonal antibody (positive selection) or to anti-CD16, CD3, and CD14 monoclonal antibodies (negative depletion) (Miltenyi Biotech). No changes were found in the cell death response of positively or negatively selected cells. Purified B-lymphocytes were cultured in complete medium (RPMI 1640 medium supplemented with 10% fetal calf serum, 2 mM L-glutamine, and 100 U/ml penicillin-streptomycin). Unless specified, reagents were from Sigma-Aldrich. […]
(§1) We used Annexin V-FITC (BD Biosciences) for the assessment of phosphatidylserine (PS) exposure. […] Data were analyzed using FlowJo software (TreeStar).

[2] = test system: MEC-1 cells; assay: Localized CLL xenograft model (MEC-1 cells subcutaneously in NSG mice); assay type: in vivo; settings: 400 μg intraperitoneally three times per week
Method: 3×10^6 MEC-1 cells were injected subcutaneously into NOD scid gamma (NSG) mice (Charles River). When the tumor volume reached 0.1 cm^3, mice were injected intraperitoneally three times per week with 4NIK or PKHB1 (400 μg in 200 μl PBS). Tumor size was measured every 2-3 days with a calliper and tumor volume, calculated using the formula (length×width^2)/2, was expressed as mm^3. Alternatively, at the end of treatment mice were injected into the sinus retro-orbital with XenoLight RediJect 2-DG-750 Probe (Caliper) to visualize tumor cell glucose uptake, which reflects cell proliferation. Fluorescence was measured by In vivo imaging system FX Pro (Kodak) and pictures were analysed with the Carestream MI software.

[3] = test system: CD19^+/CD5^− (residual B-cells); assay: Cell death in residual B-cells of CLL patients (flow cytometry); assay type: cell-based, human; settings: n=8 patients (FIG. 6C)
Method: FIG. 6A-D. FIG. 6(A) B cells isolated from CLL patients were left untreated (control) or cultured 1 h in the presence of 4N1K or the 4N1K-derivative peptide PKHB-1 at the indicated concentration. The percentage of cells that expose phosphatidylserine (measured with Annexin-V-FITC) was recorded and expressed as a plot. Data are the means of eight independent experiments. FIG. 6(B) In a similar experiment B-lymphocytes from 14 different CLL patients, including individuals with unmutated IGHV, complex karyotype and dysfunctional TP53, were left untreated (control) or cultured 1 h in the presence of 4N1K (300 μM) or the 4N1K-derivative peptide PKHB-1 (150 μM). PCD was measured by Annexin-V-FITC labelling in a flow cytometer. FIG. 6(C) Cell death was determined as described in A in 4N1K or PKHB1-treated CD19^+/CD5^− (residual B-cells) and CD19^+/CD5^+ B-lymphocytes (CLL cells) identified by flow cytometry from each CLL patient. Data are presented as the mean±s.d. (n=8 patients). FIG. 6(D) Cell death was measured by Annexin V-positive staining in 4N1K or PKHB1-treated CLL cells pre-incubated or not with the intracellular calcium chelator BAPTA-AM. Data are presented as the mean±S.D. (n=10 patients).
as §1

[4] = test system: B cells isolated from CLL patients; assay: PCD (phosphatidylserine exposure, Annexin-V-FITC, flow cytometry) in B cells from CLL patients; assay type: cell-based, human
Description: After authorized consent forms fresh blood samples will be collected from CLL patients diagnosed according to classical morphological and immunophenotypic criteria at Pitié-Salpêtrière Hospital (Service d'Hématologie Biologique). Normal B lymphocytes will be obtained from EFS (Etablisement Français du Sang). The Institutional Ethics Committee at Pitie-Salpetriere Hospital approved the present study. Mononuclear cells were purified from blood samples using a standard Ficoll-Hypaque gradient, and B cells were positively or negatively selected by magnetic beads coupled to anti-CD19 monoclonal antibody (positive selection) or to anti-CD16, CD3, and CD14 monoclonal antibodies (negative depletion) (Miltenyi Biotech). No changes were found in the cell death response of positively or negatively selected cells. Purified B-lymphocytes were cultured in complete medium (RPMI 1640 medium supplemented with 10% fetal calf serum, 2 mM L-glutamine, and 100 U/ml penicillin-streptomycin). Unless specified, reagents were from Sigma-Aldrich.
To induce cell death B-lymphocytes were cultured 1 h with the TSP-1 derived peptide 4N1K (300 μM; sequence KRFYVVMWKK, SEQ ID NO:1), the negative control peptide 4NGG (300 μM; sequence KRFYGGMWKK, SEQ ID NO:2), the newly developed peptide PKHB1 (150 μM; sequence (D)K-R-F-Y-[…]-M-W-(D)K) (formula I) or an anti-CD47 mAb (in soluble conditions or in immobilized precoated plates; 5 μg/ml; clone B6H12). Alternatively, B-cells were pre-treated for 30 min before the induction of cell death with the calcium chelator BAPTA-AM (20 μM), the caspase-inhibitor Z-VAD.fmk (50 μM).
(§2) We used Annexin V-FITC (BD Biosciences) for the assessment of phosphatidylserine (PS) exposure. Data analysis was carried out in a FACSCanto II (BD Biosciences) on the total cell population (10,000 cells). Data were analyzed using FlowJo software (TreeStar).

[5] = Peptide stability in human serum, HPLC; assay type: in vitro ADME
Method: FIG. 8: 4N1K and PKHB1 peptides stability were evaluated in human serum at 37° C. for 6 h. The relative concentrations of the remaining soluble peptides were analyzed by HPLC, by the integration of the absorbance at 220 nm as a function of retention time.

[6] = test system: primary cancer cells; assay: PCD induction in primary cancer cells (whole panel of Table 2); assay type: cell-based; settings: primary cancer cells (Table 2)
[7] = test system: cancer cell lines; assay: PCD induction in cancer cell lines (whole panel of Table 1); assay type: cell-based; settings: cancer cell lines of Table 1, Annexin V labeling
Method: as §2

| Compound | cytotoxicity in normal B-lymphocytes [1] | tumor growth compared to control mice ([2]; NSG mice with MEC-1 tumors (FIG. 7)) | tumor glucose uptake (2-DG) compared to control mice ([2]; NSG mice with MEC-1 tumors (FIG. 7C)) | cell death of residual CD19^+/CD5^− B-lymphocytes [3] | efficiency compared with 4N1K ([4]; B cells isolated from CLL patients, 1 h, indicated concentrations (FIG. 6A)) | effect of pre-treatment with calcium chelator BAPTA-AM on peptide-mediated PCD ([4]; BAPTA-AM 20 μM before PCD induction (FIG. 5, FIG. 6D)) | cell death of CD19^+/CD5^+ tumor cells ([4]; CD19^+/CD5^+ CLL cells, n=8 patients (FIG. 6C)) | time over which stable in human serum ([5]; 37° C. (FIG. 8)) | degradation in human serum ([5]; 37° C., 6 h, HPLC 220 nm (FIG. 8)) | caspase-independent PCD induction (in words) [6] | cell death / caspase-independent PCD induction (in words) [7] | PCD induction in CLL primary cells (in words) ([4]; soluble peptide or mAb (FIG. 1)) |
| --- | --- | --- | --- | --- | --- | --- | --- | --- | --- | --- | --- | --- |
| CSCC[C@H](NC(=O)[C@@H](NC(=O)[C@@H](NC(=O)[C@H](Cc1ccc(O)cc1)NC(=O)[C@H](Cc1ccccc1)NC(=O)[C@H](CCCNC(=N)N)NC(=O)[C@@H](N)CCCCN)C(C)C)C(C)C)C(=O)N[C@@H](Cc1c[nH]c2ccccc12)C(=O)N[C@@H](CCCCN)C(=O)N[C@H](CCCCN)C(=O)O [PKHB1, (D)K-R-F-Y-V-V-M-W-K-(D)] (H-KRFYVVMWK[dK]-OH) | not in normal B-lymphocytes | reduction | reduction | resistant | better efficiency than the 4N1K peptide | significantly decreased | significantly killed | ≥ 6 h | not degradated | – | – | – |
| KRFYGGMWKK [4NGG, negative soluble control peptide, 4N1K mutated in two amino acids, reference compound] | – | – | – | – | – | – | – | – | – | inefficient | inefficient | unable to induce PCD |
